Target: JAK2 (Homo sapiens, UniProt O60674)
Experiment: JAK2 Tyrosine Kinase Assay
Type: biochemical
Conditions: list of named compounds; read-out: IC50 in the JAK2 assay
Procedure: JAK2 Tyrosine Kinase Assay
The assays were performed in V-bottom 384-well plates. […] The reaction was initiated by the combination of JAK2 with substrates and test compounds. The reaction was incubated at room temperature for 60 min. and terminated by adding 45 μl of 35 mM EDTA to each sample. The reaction mixture was analyzed on the Caliper LabChip 3000 by electrophoretic separation of the fluorescent substrate and phosphorylated product. […] Compounds were dissolved at 10 mM in dimethylsulfoxide (DMSO) and evaluated at eleven concentrations, each in duplicate. IC50 values were derived by non-linear regression analysis

JAK2, sequence (O60674 whole entry): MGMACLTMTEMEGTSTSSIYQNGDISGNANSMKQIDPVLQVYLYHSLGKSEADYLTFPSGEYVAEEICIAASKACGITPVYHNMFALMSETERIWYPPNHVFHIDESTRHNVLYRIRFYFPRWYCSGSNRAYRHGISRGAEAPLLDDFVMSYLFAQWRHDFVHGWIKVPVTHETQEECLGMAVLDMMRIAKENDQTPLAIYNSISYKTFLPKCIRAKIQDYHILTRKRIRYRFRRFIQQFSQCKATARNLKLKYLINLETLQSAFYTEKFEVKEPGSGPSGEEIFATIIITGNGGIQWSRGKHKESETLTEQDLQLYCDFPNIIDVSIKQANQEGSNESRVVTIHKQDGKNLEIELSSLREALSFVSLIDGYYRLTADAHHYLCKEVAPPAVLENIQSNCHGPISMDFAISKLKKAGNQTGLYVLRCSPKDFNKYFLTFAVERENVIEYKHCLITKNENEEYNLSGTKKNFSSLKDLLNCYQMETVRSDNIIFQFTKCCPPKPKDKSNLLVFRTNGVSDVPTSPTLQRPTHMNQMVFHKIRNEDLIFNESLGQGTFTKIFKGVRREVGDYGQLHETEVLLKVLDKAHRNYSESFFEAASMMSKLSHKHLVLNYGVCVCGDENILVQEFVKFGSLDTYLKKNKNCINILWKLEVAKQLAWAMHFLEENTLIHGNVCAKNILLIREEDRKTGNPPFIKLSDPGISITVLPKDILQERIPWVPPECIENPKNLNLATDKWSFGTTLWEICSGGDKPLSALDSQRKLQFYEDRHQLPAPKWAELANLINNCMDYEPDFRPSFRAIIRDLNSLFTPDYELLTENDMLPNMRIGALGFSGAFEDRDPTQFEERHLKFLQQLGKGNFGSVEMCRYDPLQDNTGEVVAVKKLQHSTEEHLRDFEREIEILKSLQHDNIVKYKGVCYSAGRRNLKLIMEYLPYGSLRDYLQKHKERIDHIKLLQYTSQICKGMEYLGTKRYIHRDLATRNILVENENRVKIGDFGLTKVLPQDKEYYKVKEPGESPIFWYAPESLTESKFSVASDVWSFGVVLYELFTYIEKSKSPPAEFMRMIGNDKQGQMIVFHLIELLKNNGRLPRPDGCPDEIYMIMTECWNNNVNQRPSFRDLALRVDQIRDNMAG

SMILES | IC50 [nM]
Cc1cc(Nc2nc(N3CCN(C(=O)Cc4ccccc4)CC3)nn3cccc23)n[nH]1 [N-(5-methyl-1H-pyrazol-3-yl)-2-(4-(phenylacetyl)-1-piperazinyl)pyrrolo[2,1-f][1,2,4]triazin-4-amine] | ≤ 5
Cc1cc(Nc2nc(N3CCN(C(=O)c4cccc(F)c4)CC3)nn3cccc23)n[nH]1 [2-(4-(3-fluorobenzoyl)-1-piperazinyl)-N-(5-methyl-1H-pyrazol-3-yl)pyrrolo[2,1-f][1,2,4]triazin-4-amine] | ≤ 5
Cc1cc(Nc2nc(N3CCN(C(=O)c4ccccc4NC(=O)OC(C)(C)C)CC3)nn3cccc23)n[nH]1 [tert-butyl (2-((4-(4-((5-methyl-1H-pyrazol-3-yl)amino)pyrrolo[2,1-f][1,2,4]triazin-2-yl)-1-piperazinyl)carbonyl)phenyl)carbamate] | ≤ 5
Cc1cc(Nc2nc(N3CCN(C(=O)c4ncco4)CC3)nn3cccc23)n[nH]1 [N-(5-methyl-1H-pyrazol-3-yl)-2-(4-(1,3-oxazol-2-ylcarbonyl)-1-piperazinyl)pyrrolo[2,1-f][1,2,4]triazin-4-amine] | ≤ 5
Cc1cc(Nc2nc(N3CCN(C(=O)CC4CCCCC4)CC3)nn3cccc23)n[nH]1 [2-(4-(cyclohexylacetyl)-1-piperazinyl)-N-(5-methyl-1H-pyrazol-3-yl)pyrrolo[2,1-f][1,2,4]triazin-4-amine] | ≤ 5
Cc1cc(Nc2nc(N3CCN(C(=O)c4cccn4C)CC3)nn3cccc23)n[nH]1 [N-(5-methyl-1H-pyrazol-3-yl)-2-(4-((1-methyl-1H-pyrrol-2-yl)carbonyl)-1-piperazinyl)pyrrolo[2,1-f][1,2,4]triazin-4-amine] | ≤ 5
Cc1cc(Nc2nc(N3CCN(C(=O)C(O)c4c(F)cccc4F)CC3)nn3cccc23)n[nH]1 (stereo not shown) [1-(2,6-difluorophenyl)-2-(4-(4-((5-methyl-1H-pyrazol-3-yl)amino)pyrrolo[2,1-f][1,2,4]triazin-2-yl)-1-piperazinyl)-2-oxoethanol] | ≤ 5
COc1cccc(C(=O)N2CCN(c3nc(Nc4cc(C)[nH]n4)c4cccn4n3)CC2)c1 [2-(4-(3-methoxybenzoyl)-1-piperazinyl)-N-(5-methyl-1H-pyrazol-3-yl)pyrrolo[2,1-f][1,2,4]triazin-4-amine] | ≤ 5
Cc1cc(Nc2nc(N3CCN(C(=O)c4ccccc4-c4c(C)n[nH]c4C)CC3)nn3cccc23)n[nH]1 [2-(4-(2-(3,5-dimethyl-1H-pyrazol-4-yl)benzoyl)-1-piperazinyl)-N-(5-methyl-1H-pyrazol-3-yl)pyrrolo[2,1-f][1,2,4]triazin-4-amine] | ≤ 5
CC(=O)Nc1cccc(C(=O)N2CCN(c3nc(Nc4cc(C)[nH]n4)c4cccn4n3)CC2)c1 [N-(3-((4-(4-((5-methyl-1H-pyrazol-3-yl)amino)pyrrolo[2,1-f][1,2,4]triazin-2-yl)-1-piperazinyl)carbonyl)phenyl)acetamide] | ≤ 5
CCCCC(=O)N1CCN(c2nc(Nc3cc(C)[nH]n3)c3cccn3n2)CC1 [N-(5-methyl-1H-pyrazol-3-yl)-2-(4-pentanoyl-1-piperazinyl)pyrrolo[2,1-f][1,2,4]triazin-4-amine] | ≤ 5
Cc1ccc(C2(C(=O)N3CCN(c4nc(Nc5cc(C)[nH]n5)c5cccn5n4)CC3)CCCCC2)cc1 [2-(4-((1-(4-methylphenyl)cyclohexyl)carbonyl)-1-piperazinyl)-N-(5-methyl-1H-pyrazol-3-yl)pyrrolo[2,1-f][1,2,4]triazin-4-amine] | ≤ 5
Cc1cc(Nc2nc(N3CCN(C(=O)c4c(F)cccc4C(F)(F)F)CC3)nn3cccc23)n[nH]1 [2-(4-(2-fluoro-6-(trifluoromethyl)benzoyl)-1-piperazinyl)-N-(5-methyl-1H-pyrazol-3-yl)pyrrolo[2,1-f][1,2,4]triazin-4-amine] | ≤ 5
Cc1cc(Nc2nc(N3CCN(C(=O)C4CC(=O)c5ccccc54)CC3)nn3cccc23)n[nH]1 (stereo not shown) [3-((4-(4-((5-methyl-1H-pyrazol-3-yl)amino)pyrrolo[2,1-f][1,2,4]triazin-2-yl)-1-piperazinyl)carbonyl)-1-indanone] | ≤ 5
Cc1cc(Nc2nc(N3CCN(C(=O)C(C)c4ccc(Cl)cc4)CC3)nn3cccc23)n[nH]1 (stereo not shown) [2-(4-(2-(4-chlorophenyl)propanoyl)-1-piperazinyl)-N-(5-methyl-1H-pyrazol-3-yl)pyrrolo[2,1-f][1,2,4]triazin-4-amine] | ≤ 5
Cc1cc(Nc2nc(N3CCN(C(=O)c4sc5ccccc5c4Cl)CC3)nn3cccc23)n[nH]1 [2-(4-((3-chloro-1-benzothiophene-2-yl)carbonyl)-1-piperazinyl)-N-(5-methyl-1H-pyrazol-3-yl)pyrrolo[2,1-f][1,2,4]triazin-4-amine] | ≤ 5
CO[C@](C(=O)N1CCN(c2nc(Nc3cc(C)[nH]n3)c3cccn3n2)CC1)(c1ccccc1)C(F)(F)F [N-(5-methyl-1H-pyrazol-3-yl)-2-(4-((2S)-3,3,3-trifluoro-2-methoxy-2-phenylpropanoyl)-1-piperazinyl)pyrrolo[2,1-f][1,2,4]triazin-4-amine] | ≤ 5
Cc1cc(Nc2nc(N3CCN(C(=O)c4cc(F)c(F)cc4Cl)CC3)nn3cccc23)n[nH]1 [2-(4-(2-chloro-4,5-difluorobenzoyl)-1-piperazinyl)-N-(5-methyl-1H-pyrazol-3-yl)pyrrolo[2,1-f][1,2,4]triazin-4-amine] | ≤ 5
Cc1cc(Nc2nc(N3CCN(C(=O)C4(C#N)CC4)CC3)nn3cccc23)n[nH]1 [1-((4-(4-((5-methyl-1H-pyrazol-3-yl)amino)pyrrolo[2,1-f][1,2,4]triazin-2-yl)-1-piperazinyl)carbonyl)cyclopropanecarbonitrile] | ≤ 5
CC(=O)Nc1ccc(C(=O)N2CCN(c3nc(Nc4cc(C)[nH]n4)c4cccn4n3)CC2)cc1 [N-(4-((4-(4-((5-methyl-1H-pyrazol-3-yl)amino)pyrrolo[2,1-f][1,2,4]triazin-2-yl)-1-piperazinyl)carbonyl)phenyl)acetamide] | ≤ 5
Cc1cc(Nc2nc(N3CCN(C(=O)c4ccc(Cl)cc4Cl)CC3)nn3cccc23)n[nH]1 [2-(4-(2,4-dichlorobenzoyl)-1-piperazinyl)-N-(5-methyl-1H-pyrazol-3-yl)pyrrolo[2,1-f][1,2,4]triazin-4-amine] | ≤ 5
Cc1cc(Nc2nc(N3CCN(C(=O)c4cccnc4Cl)CC3)nn3cccc23)n[nH]1 [2-(4-((2-chloro-3-pyridinyl)carbonyl)-1-piperazinyl)-N-(5-methyl-1H-pyrazol-3-yl)pyrrolo[2,1-f][1,2,4]triazin-4-amine] | ≤ 5
Cc1cc(Nc2nc(N3CCN(C(=O)Cc4ccccc4Br)CC3)nn3cccc23)n[nH]1 [2-(4-((2-bromophenyl)acetyl)-1-piperazinyl)-N-(5-methyl-1H-pyrazol-3-yl)pyrrolo[2,1-f][1,2,4]triazin-4-amine] | ≤ 5
Cc1cc(Nc2nc(N3CCN(C(=O)c4cccc(C(F)(F)F)c4)CC3)nn3cccc23)n[nH]1 [N-(5-methyl-1H-pyrazol-3-yl)-2-(4-(3-(trifluoromethyl)benzoyl)-1-piperazinyl)pyrrolo[2,1-f][1,2,4]triazin-4-amine] | ≤ 5
Cc1cc(Nc2nc(N3CCN(C(=O)C(c4ccc(Cl)cc4)C(C)C)CC3)nn3cccc23)n[nH]1 (stereo not shown) [2-(4-(2-(4-chlorophenyl)-3-methylbutanoyl)-1-piperazinyl)-N-(5-methyl-1H-pyrazol-3-yl)pyrrolo[2,1-f][1,2,4]triazin-4-amine] | ≤ 5
